# Source: paper PMC12344671 (Journal of Enzyme Inhibition and Medicinal Chemistry, 2025)
# Legend:
# [1] = target: mDUSP-H1 (DUSP-H1 from monkeypox virus) (Monkeypox virus, UniProt A0A7H0DN78); test: biochemical; assay type: biochemical
# normal human cell lines = conditions: cited from earlier work
# [2] = test system: human dermal fibroblasts (HDF); conditions: cited from earlier work
# HEK293 = conditions: cited from earlier work
# mDUSP-H1 (DUSP-H1 from monkeypox virus), sequence (A0A7H0DN78 whole entry, looked up): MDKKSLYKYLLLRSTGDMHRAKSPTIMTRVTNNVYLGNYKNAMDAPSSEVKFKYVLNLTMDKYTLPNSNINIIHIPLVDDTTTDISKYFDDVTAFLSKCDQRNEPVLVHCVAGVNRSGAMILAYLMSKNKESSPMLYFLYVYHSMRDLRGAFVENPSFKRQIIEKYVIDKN
SMILES,IC50 [1] [µM],mDUSP-H1 reactivity compared to the DMSO control [1],further results
O=c1cc(-c2ccc(O)cc2)oc2c(-c3c(O)cc(O)c4c(=O)cc(-c5ccc(O)cc5)oc34)c(O)cc(O)c12 [Cupressuflavone],11.1 ± 0.18,significantly reduced reactivity,–
COc1cc2oc(-c3ccc(O)c(O)c3)cc(=O)c2c(O)c1OC [Cirsiliol],–,relatively unchanged,–
O=c1c(O)c(-c2ccc(O)cc2)oc2c(O)c(O)cc(O)c12 [Herbacetin],12.71 ± 0.08,significantly reduced reactivity,–
COc1ccc(-c2cc(=O)c3c(O)cc(O)cc3o2)cc1O [Diosmetin],–,relatively unchanged,inhibitory activity against mDUSP-H1 (in words) [1]: no significant inhibitory activity
COc1ccc(-c2cc(=O)c3c(O)c(OC)c(O[C@@H]4O[C@H](CO[C@@H]5O[C@@H](C)[C@H](O)[C@@H](O)[C@H]5O)[C@@H](O)[C@H](O)[C@H]4O)cc3o2)cc1 [Pectolinarin],–,relatively unchanged,–
C[C@@H]1O[C@@H](Oc2c(-c3ccc(O)c(O)c3)oc3cc(O)cc(O)c3c2=O)[C@H](O)[C@H](O)[C@H]1O [Quercitrin],–,relatively unchanged,inhibitory activity against mDUSP-H1 (in words) [1]: minimal inhibition
O=C(O[C@@H]1Cc2c(O)cc(O)cc2O[C@@H]1c1cc(O)c(O)c(O)c1)c1cc(O)c(O)c(O)c1 [(−)-Epigallocatechin gallate],14 ± 0.35,significantly reduced reactivity,–
C[C@@H]1O[C@@H](O[C@H]2[C@H](Oc3cc(O)c4c(c3)O[C@H](c3ccc(O)cc3)CC4=O)O[C@H](CO)[C@@H](O)[C@@H]2O)[C@H](O)[C@H](O)[C@H]1O [Naringin],–,relatively unchanged,inhibitory activity against mDUSP-H1 (in words) [1]: little to no activity
O=c1cc(-c2ccccc2)oc2cc(O)c(O)c(O)c12 [Baicalein],11.2 ± 0.14,significantly reduced reactivity,–
Oc1cc(O)c2c(c1)O[C@@H](c1cc(O)c(O)c(O)c1)[C@H](O)C2 [(−)-Gallocatechin],9.56 ± 0.32,significantly reduced reactivity,IC50 (normal human cell lines): > 100 µM; non-toxic concentration (normal human cell lines): ≤ 100 µM
O=c1c(O)c(-c2cc(O)c(O)c(O)c2)oc2cc(O)cc(O)c12 [Myricetin],–,significantly reduced reactivity,IC50 [2]: > 100 µM; IC50 (HEK293): > 100 µM; IC50 (normal human cell lines): > 100 µM
